From patent EP0465913B1, “Diaminotrifluoromethylpyrimidine derivatives, process for their production and phospholipase A2 inhibitor containing them” (ISHIHARA SANGYO KAISHA, LTD., priority 1990, dated 1992)
Read-outs that look alike come from different tables or passages of the source.

Key:
[1] = Acute toxicity, intravenous injection (LD50); format: in vivo; conditions: mouse, in vivo, ddy male mice, sodium salt, mortality over one week
Description: Administration route: Intravenous injection
Using ddy male mice (body weight: 25 - 30 g), each test group consisted of 5 mice. A test compound was dissolved in the form of a sodium salt in a physiological saline or in a 5% glucose aqueous solution, and intravenously injected in an amount of 0.1 ml/10 g body weight. After the injection, the mortality rate was obtained over one week, and the median lethal dose LD50 (mg/kg) was determined.

[2] = tested on: increased vascular permeability induced by acetic acid; test: Inhibitory activity on increased vascular permeability induced by acetic acid (Mouse Whittle method, method C); format: in vivo, ddy male mice; conditions: amount of leaked dye
Description: Using ddy male mice, each test group consisted of 4 or 5 mice. A test compound was mixed with Tween 80 [polyoxyethylenesorbitan monooleate (manufactured by Nacalai Tesque K.K.)], and distilled water was added thereto to obtain a 2% Tween 80 suspension, or it was dissolved in the form of a salt in water to obtain an aqueous solution. A test compound was orally administered, and upon expiration of one hour from the administration, 0.7% acetic acid was intraperitonially injected to each mouse in an amount of 0.1 ml/10 g, and at the same time, 2% brilliant blue was intravenously injected into the tail vein in an amount of 0.1 ml/20 g. Thirty minutes after the injection of brilliant blue, the cervical vertebrae were dislocated under anesthesia by chloroform, and the abdorminal cavity was washed with 5 ml of a physiological saline. The washing solution was subjected to centrifugal separation at 3,000 rpm for 10 minutes, and the amount of the dye in the supernatant was measured at 600 nm absorbance by Microplate ELISA Reader (Model 2550EIA Reader, manufactured by Bio-Rad Laboratories). The inhibition rate of the amount of leaked dye in the group in which a test compound was administered relative to the control group was obtained by the following formula. Inhibition rate (%) = (l -(C)/(D)) x 100 [formula] • C: Amount of leaked dye in the group to which a test compound was administered. • D: Amount of leaked dye in the control group.

[3] = molecular target: T1, Porcine pancreatic phospholipase A2 (Sus scrofa, UniProt P00592); test: Phospholipase A2 inhibitory activity, method A (egg yolk lecithin substrate); format: biochemical; conditions: 1,000 ppm, 37°C for 30 minutes, read-out: % inhibition of PLA2 (1,000 ppm)
T1 construct: purchased Boehringer Mannheim·Yamanouchi K.K. 161454·122416
Description: To 10 mg of egg yolk lecithin (manufactured by Wako Pure Chemical Industries Ltd.), 1 ml of glycerine, 2 ml of a 50 mM Tris-HCl buffer solution (pH7.5) [Tris(hydroxymethyl)aminomethane (manufactured by Nacalai Tesque K.K.) was adjusted to pH7.5 with hydrochloric acid], 0.5 ml of a 150 mM calcium chloride solution (calcium chloride was dissolved in a 50 mM Tris-HCl buffer solution) and 0.5 ml of a 0.05% Triton-X100 (manufactured by Nacalai Tesque K.K.) solution (Triton-X100 was dissolved in a 50 mM Tris-HCl buffer solution), were added and dispersed by an agate mortar or dispersed by an ultrasonic processor (Model W-225, manufactured by Heat System-Ultrasonics, Inc.) for 5 minutes (30W) to obtain a substrate.
Porcine pancreatic phospholipase A2 [(161454·122416) manufactured by Boehringer Mannheim·Yamanouchi K.K.] was used.
To a 96 well microtitration plate (flat bottom, manufactured by Sumitomo Bakelite Medical Co., Ltd.), 40 µl of the substrate, 5 µl of a solution prepared by dissolving 10 mg of a test compound in 500 µl of dimethylsulfoxide, followed by an addition of 500 µl of a 50 mM Tris-HCl buffer solution, and 5 µl of an enzyme solution of 20 ng/ml (prepared by diluting the enzyme in a 50 mM Tris-HCl buffer solution), were added and reacted at 37°C for 30 minutes. After termination of the reaction, the released free fatty acid was quantitatively analyzed in accordance with the ACS-ACOD (acyl CoA synthetase-acyl CoA oxidase) method [a kit of NEFA C test wako (manufactured by Wako Pure Chemical Industries, Ltd.) was used]. The quantitative analysis was made by means of Microplate ELISA Reader (Model 2550EIA Reader, manufactured by Bio-Rad Laboratories) at a wavelength of 540 nm. Separately, such experiments as mentioned above, were carried out at various concentrations (2 µg/ml, 1 µg/ml and 0.5 µg/ml) of phospholipase A2 without a test compound. Then, the concentration of the free fatty acid versus the concentration of phospholipase A2 was plotted.
From this standard curve, the apparent concentration of phospholipase A2 in the case with a test compound, was read. Then, the percent inhibition of the enzyme was calculated by the following formula. Percent inhibition (%) = (l -(A)/(B)) x 100 [formula] • A: Apparent enzyme concentration when a test compound is added. • B: True enzyme concentration when a test compound is added.

[4] = tested on: experimental acute pancreatitis model; test: Effects against acute pancreatitis (Test Example 8, closed duodenal loop method, lesion scores); format: in vivo, Crj-CD male rats; conditions: sodium salt, 6 hours after ventrotomy; for inhibition in vivo at 10 mg/kg: Rattus norvegicus, 10 mg/kg single intravenous injection
Summary of the method: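 Closed duodenal loop pancreatitis in male Crj-CD rats (n=3) under halothane/nitrous oxide; sodium-salt compounds given i.v. into tail vein by continuous infusion or bolus, controls untreated. At 6 h, four pancreatic lesions scored 0-3; inhibition % of total and hemorrhagic scores calculated versus control.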

[5] = tested on: carrageenin edema; test: Inhibitory activity on carrageenin edema; format: in vivo, Wistar male rats; conditions: po, 3 h; rat; dose 100 mg/kg orally; paw swelling volume three hours after carrageenin; read-out: Inhibition rate (%)
Summary of the method: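 Male Wistar rats (about 100 g, 5 per group) dosed orally at 200, 100, 50 or 25 mg/kg as 2% Tween 80 suspension or aqueous salt solution, 1 h before subplantar injection of 0.1 ml 1% λ-carrageenin. Paw swelling measured at 3 h; % inhibition versus control group mean swelling.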

[6] = molecular target: T1, Porcine pancreatic phospholipase A2; test: Phospholipase A2 inhibitory activity, method B (L-α-dipalmitoylphosphatidylcholine substrate); format: biochemical; conditions: 1,000 ppm, 37°C for 30 minutes, read-out: % inhibition of PLA2 (1,000 ppm)
Summary of the method: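 Substrate: L-α-dipalmitoylphosphatidylcholine/sodium cholate mixed micelles in 250 mM NaCl, 100 mM Tris-HCl pH 8.0. Enzyme (10 µg/ml stock) incubated with compound in buffer containing CaCl2 and BSA, 30 min at 37 °C. Released free fatty acid measured by ACS-ACOD at 540 nm; % inhibition derived from apparent enzyme concentration read off a standard curve.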

[7] = tested on: increased vascular permeability induced by acetic acid; test: Inhibitory activity on increased vascular permeability induced by acetic acid (Rat Whittle method, method D); format: in vivo, SD (Crj: CD) male rats; conditions: dose 12.5 mg/kg orally, amount of leaked dye
Description: Using SD (Crj: CD) male rats, each test group consisted of from 3 to 5 rats. A test compound was mixed with Tween 80 [polyoxyethylenesorbitan monooleate (manufactured by Nacalai Tesque K.K.)], and distilled water was added thereto to obtain a 2% Tween 80 suspension, or it was dissolved in the form of a salt in water to obtain an aqueous solution. A test compound was orally administered, and one hour later, 0.7% acetic acid was intraperitonially injected to each rat in an amount of 0.05 ml/10 g, and at the same time, 2% brilliant blue was intravenously injected into the tail vein in an amount of 0.05 ml/20 g. Thirty minutes after the injection of brilliant blue, the cervical vertebrae were dislocated under anesthesia by chloroform, and the abdorminal cavity was washed with 10 ml of a physiological saline. The washing solution was subjected to centrifugal separation at 3,000 rpm for 10 minutes, and the amount of the dye in the supernatant was measured at 600 nm absorbance by Microplate ELISA Reader (Model 2550EIA Reader, manufactured by Bio-Rad Laboratories). The inhibition rate of the amount of leaked dye in the group to which a test compound was administered relative to the control group was obtained from the following formula, and the results are shown in Table 9. Inhibition rate (%) = (l -(C)/(D)) x 100 [formula] • C: Amount of leaked dye in the group to which a test compound was administered. • D: Amount of leaked dye in the control group.

[8] = read-out: Inhibition rate of hemorrhagic lesions (%)
[9] = read-out: Inhibition rate of pancreatitis lesions (%)
[10] = 20 mg/kg continuous intravenous injection

T1 sequence (P00592 23-146): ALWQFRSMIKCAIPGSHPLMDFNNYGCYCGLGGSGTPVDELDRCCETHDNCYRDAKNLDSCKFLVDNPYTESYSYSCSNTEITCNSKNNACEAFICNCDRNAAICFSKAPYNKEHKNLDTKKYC

SMILES	LD50 at 168 h ([1]; iv) [mg/kg]	Inhibition rate (%) ([2]; dose 50 mg/kg orally)	inhibition at 1000 ppm [3] [%]	Inhibition rate (%) ([2]; dose 20 mg/kg orally)	inhibition in vivo at 100 mg/kg [5] [%]	also measured
CCCC(=O)Nc1cc(C(F)(F)F)cnc1NS(C)(=O)=O [Compound No. 1]	100 to 150	46	45			inhibition in vivo at 10 mg/kg [4, 8]: 66%; inhibition in vivo at 10 mg/kg [4, 9]: 49%
CCCCC(=O)Nc1cc(C(F)(F)F)cnc1NS(C)(=O)=O [Compound No. 2]	50 to 100		55	51	17	Inhibition rate of hemorrhagic lesions (%) ([4]; 26 mg/kg continuous intravenous injection): 46%
CCCCCC(=O)Nc1cc(C(F)(F)F)cnc1NS(C)(=O)=O [Compound No. 3]	> 100	58	67		20	inhibition in vivo at 10 mg/kg [4, 8]: 49%; inhibition in vivo at 10 mg/kg [4, 9]: 51%
CCCCCCCCCCCC(=O)Nc1cc(C(F)(F)F)cnc1NS(C)(=O)=O [compound 5]		53	39		37	
CS(=O)(=O)Nc1ncc(C(F)(F)F)cc1NC(=O)C1CCCCC1 [compound 8]	> 25		81	48		
C=CC(=O)Nc1cc(C(F)(F)F)cnc1NS(C)(=O)=O [compound 9]	> 150	81	71			inhibition in vivo at 10 mg/kg [4, 8]: 36%; inhibition in vivo at 10 mg/kg [4, 9]: 21%
CS(=O)(=O)Nc1ncc(C(F)(F)F)cc1NC(=O)C(F)(F)Cl [compound 11]	> 150		52		24	Inhibition rate (%) ([2]; dose 100 mg/kg orally): 49%; Inhibition rate of hemorrhagic lesions (%) ([4]; 23 mg/kg continuous intravenous injection): 52%
CCOC(=O)Nc1cc(C(F)(F)F)cnc1NS(C)(=O)=O [compound 15]		41	62			LD50 at 168 h [1]: 100 to 150 mg/kg; inhibition in vivo at 10 mg/kg [4, 8]: 45%; inhibition in vivo at 10 mg/kg [4, 9]: 61%
CCCOC(=O)Nc1cc(C(F)(F)F)cnc1NS(C)(=O)=O [compound 16]			43	55	24	LD50 at 168 h [1]: > 100 mg/kg; Inhibition rate of hemorrhagic lesions (%) [4, 10]: 52%
CCCCOC(=O)Nc1cc(C(F)(F)F)cnc1NS(C)(=O)=O [compound 17]		31	46			LD50 at 168 h [1]: 50 to 100 mg/kg; Inhibition rate of hemorrhagic lesions (%) [4, 10]: 73%
CCOC(=O)NC(=S)Nc1cc(C(F)(F)F)cnc1NS(C)(=O)=O [compound 18]			64			LD50 at 168 h [1]: > 150 mg/kg; Inhibition rate (%) ([2]; dose 25 mg/kg orally): 49%; inhibition at 1000 ppm [6]: 49%
CCCS(=O)(=O)Nc1ncc(C(F)(F)F)cc1NC(=O)C(F)(F)C(F)(F)F [compound 22]	> 100		74		29	Inhibition rate (%) ([2]; dose 10 mg/kg orally): 39%
CCCCCCCCS(=O)(=O)Nc1ncc(C(F)(F)F)cc1NC(=O)C(F)(F)C(F)(F)F [compound 23]			37	33	30	
O=C(NNc1ncc(C(F)(F)F)cc1NC(=O)C(F)(F)C(F)(F)F)c1ccccc1 [compound 39]			41	53	25	
C=CC(=O)Nc1cc(C(F)(F)F)cnc1NS(=O)(=O)CC [compound 49]	175		30	50		Inhibition rate of hemorrhagic lesions (%) ([4]; 42 mg/kg continuous intravenous injection): 68%
C/C=C/C(=O)Nc1cc(C(F)(F)F)cnc1NS(C)(=O)=O [compound 55, N-(2-methylsulfonylamino-5-trifluoromethyl-3-pyridyl)crotonamide]	237		49			Inhibition rate (%) ([2]; dose 25 mg/kg orally): 59%; Inhibition rate of hemorrhagic lesions (%) ([4]; 40 mg/kg continuous intravenous injection): 65%
CS(=O)(=O)Nc1ncc(C(F)(F)F)cc1NC(=O)c1ccccc1F [compound 57]	83		57	43	35	Inhibition rate of hemorrhagic lesions (%) [4, 10]: 60%
CC(=O)OCC(=O)Nc1cc(C(F)(F)F)cnc1NS(C)(=O)=O [compound 63, N-(2-methylsulfonylamino-5-trifluoromethyl-3-pyridyl)acetoxyacetamide]	> 130					Inhibition rate (%) ([2]; dose 10 mg/kg orally): 41%; inhibition in vivo at 10 mg/kg [4, 8]: 83%; inhibition in vivo at 10 mg/kg [4, 9]: 66%; inhibition at 1000 ppm [6]: 34%
CS(=O)(=O)Nc1ncc(C(F)(F)F)cc1NC(=O)OC1CCCCC1 [compound 121]						Inhibition rate (%) [7]: 31%; inhibition at 1000 ppm [6]: 90%
